Here are results for ten compounds from patent publication US20210267953A1, “SUBSTITUTED OXAZOLIDINONES FOR THE TREATMENT OF MAMMALIAN INFECTIONS” (CADILA HEALTHCARE LIMITED, priority 2018, published 2021).

The structures appear in SMILES notation. Converted amounts (≈) assume the structure as drawn.

A word on the MIC: it is the least concentration at which growth counts as inhibited.

The test deals with Mycobacterium tuberculosis H37Rv. Put plainly: Minimum Inhibitory Concentration (MIC) determination, MABA assay. Format: cell-based. The settings on record: Microplate Alamar Blue Assay, M. tuberculosis H37Rv log phase culture in 7H-9 medium, 7 days at 37° C., lowest concentration that prevents colour change blue to pink, read-out: Mtb MIC. (The colour change of resazurin is a common sign of viable cells or microbes.)
For `CC(=O)NC[C@H]1CN(c2cc(F)c(N3CCC4(CC3)CS(=O)(=O)C4)c(F)c2)C(=O)O1` [Example 3, (S)—N-((3-(4-(2,2-dioxido-2-thia-7-azaspiro[3.5]nonan-7-yl)-3,5-difluorophenyl)-2-oxooxazolidin-5-yl)methyl)acetamide], the MIC turned out to be 1.25 µM (≈ 0.554 µg/mL).

As for `CC(=O)NC[C@H]1CN(c2ccc(N3CCC(C4CS(=O)(=O)C4)CC3)c(F)c2)C(=O)O1` [Example 10, (S)—N-((3-(4-(4-(1,1-dioxidothietan-3-yl)piperidin-1-yl)-3-fluorophenyl)-2-oxooxazolidin-5-yl)methyl)acetamide], the MIC stood at 2.5 µM (≈ 1.1 µg/mL).

As for `CC(=O)NC[C@H]1CN(c2ccc(N3CCC4(CC3)CS(=O)(=O)C4)c(F)c2)C(=O)O1` [Example 5, (S)—N-((3-(4-(2,2-dioxido-2-thia-7-azaspiro[3.5]nonan-7-yl)-3-fluorophenyl)-2-oxooxazolidin-5-yl)methyl)acetamide], the MIC was 1.25 µM (≈ 0.532 µg/mL).

In the case of `CC(=O)NC[C@H]1CN(c2cc(F)c(N3CCC(C4COC4)CC3)c(F)c2)C(=O)O1` [Example 8, (S)—N-((3-(3,5-difluoro-4-(4-(oxetan-3-yl)piperidin-1-yl)phenyl)-2-oxooxazolidin-5-yl)methyl)acetamide], the MIC stood at 2.5 µM (≈ 1.02 µg/mL).

For `CC(=O)NC[C@H]1CN(c2cc(F)c(N3CCC4(CC3)COC4)c(F)c2)C(=O)O1` [Example 6, (S)—N-((3-(3,5-difluoro-4-(2-oxa-7-azaspiro[3.5]nonan-7-yl)phenyl)-2-oxooxazolidin-5-yl)methyl)acetamide], the MIC was in the range of 1.25 to 2.5 µM (≈ 0.494 to 0.989 µg/mL).

Consider `COC(=O)NC[C@H]1CN(c2cc(F)c(N3CCC4(CC3)CS(=O)(=O)C4)c(F)c2)C(=O)O1` [Example 4, (S)-methyl ((3-(4-(2,2-dioxido-2-thia-7-azaspiro[3.5]nonan-7-yl)-3,5-difluorophenyl)-2-oxooxazolidin-5-yl)methyl)carbamate], for which the MIC worked out at 1.25 µM (≈ 0.574 µg/mL).

For `O=C1O[C@@H](Cn2ccnn2)CN1c1cc(F)c(N2CCC3(CC2)CS(=O)(=O)C3)c(F)c1` [Example 1, (R)-5-((1H-1,2,3-triazol-1-yl)methyl)-3-(4-(2,2-dioxido-2-thia-7-azaspiro[3.5]nonan-7-yl)-3,5-difluorophenyl)oxazolidin-2-one], the MIC was found to be 1.25 µM (≈ 0.567 µg/mL).

As to `CC(=O)NC[C@H]1CN(c2ccc(N3CCC4(CC3)COC4)c(F)c2)C(=O)O1` [Example 7, (S)—N-((3-(3-fluoro-4-(2-oxa-7-azaspiro[3.5]nonan-7-yl)phenyl)-2-oxooxazolidin-5-yl)methyl)acetamide], the MIC turned out to be 2.5 µM (≈ 0.944 µg/mL).

Regarding `CC(=O)NC[C@H]1CN(c2cc(F)c(N3CCC(C4CS(=O)(=O)C4)CC3)c(F)c2)C(=O)O1` [Example 9, (S)—N-((3-(4-(4-(1,1-dioxidothietan-3-yl)piperidin-1-yl)-3,5-difluorophenyl)-2-oxooxazolidin-5-yl)methyl)acetamide], the MIC was 1.25 µM (≈ 0.572 µg/mL).

As to `O=C1O[C@@H](CNc2ccon2)CN1c1cc(F)c(N2CCC3(CC2)CS(=O)(=O)C3)c(F)c1` [Example 2, (S)-3-(4-(2,2-dioxido-2-thia-7-azaspiro[3.5]nonan-7-yl)-3,5-difluorophenyl)-5-((isoxazol-3-ylamino)methyl)oxazolidin-2-one], the MIC was 1.25 µM (≈ 0.586 µg/mL).
